The test system of experiment [1] is P. berghei-ANKA-GFP-LucCON liver stage parasites in HepG2-A16-CD81EGFP cells. In words: P. berghei liver stage Pb-Luc assay, Method 1 (UCSD, 1536-well). Type of experiment: cell-based, Plasmodium berghei. As to conditions: Plasmodium berghei, 48 h, P. berghei liver stage, average of 2 wells on a 1536 well plate; for activity at 1 µM: 1 µM compound treatment (10 mM stocks); for activity at 3 µM: 3 µM compound treatment (10 mM stocks).

The test system of experiment [2] is Plasmodium falciparum Dd2 asexual blood stage parasites. In words: microbe, parasite or virus in culture. Further details: species or system Plasmodium falciparum Dd2 in human erythrocytes; single determination (one 11-point concentration-response curve). To be noted: Plasmodium falciparum, DD2, Erythrocyte, 72 h; read-out: AC50.
The subject of another experiment is HepG2-A16-CD81EGFP cells. To be noted: average of 2 wells; for HepG2 1uM growth rep1 / HepG2 1uM growth rep2: HepG2, 1 µM compound treatment (10 mM stocks); for HepG2 1uM growth rep1 / HepG2 3uM growth rep1: replicate 1, normalized; for HepG2 1uM growth rep2 / HepG2 3uM growth rep2: replicate 2, normalized; for HepG2 3uM growth rep1 / HepG2 3uM growth rep2: HepG2, 3 µM compound treatment (10 mM stocks).

Where [3] appears, read: replicate 1, normalized, read-out: PbLuc 1uM growth rep1.
Where [4] appears, read: replicate 2, normalized, read-out: PbLuc 1uM growth rep2.
The mark [5] stands for this setting: replicate 1, normalized, read-out: PbLuc 3uM growth rep1.
Where [6] appears, read: replicate 2, normalized, read-out: PbLuc 3uM growth rep2.

The record followed here is article PMC7822874, “Chemoprotective antimalarials identified through quantitative high-throughput screening of Plasmodium blood and liver stage parasites” (Scientific Reports, 2021).

The structures appear in SMILES notation. Read-outs that look alike come from different tables or passages of the source.

In the case of `COc1ccc(NC(=O)C(c2ccc(Cl)cc2)C(C)C)cn1` (stereo not drawn) [MLS001149289-01], the activity at 1 µM in experiment [1] (setting [3]) turned out to be 131%. The activity at 1 µM in experiment [1] (setting [4]) came to 130%. In experiment [1] (setting [5]), the activity at 3 µM amounted to 155%. Further, the activity at 3 µM in experiment [1] (setting [6]) was found to be 159%. In addition, the AC50 (as a rule, the concentration at which the activity in the assay is half-maximal) in experiment [2] is 1880 nM. In the experiment on HepG2-A16-CD81EGFP cells, the “HepG2 1uM growth rep1” value amounted to 104%, the “HepG2 1uM growth rep2” value is 98%, the “HepG2 3uM growth rep1” value was 90% and the “HepG2 3uM growth rep2” value was found to be 87%.
Turning to `Nc1nonc1-n1nnc(C(=O)N/N=C/c2ccc(Br)cc2)c1-c1ccc2c(c1)OCO2` [MLS001142619-01], in experiment [1] (setting [3]), the activity at 1 µM was 115%. In addition, in experiment [1] (setting [4]), the activity at 1 µM stood at 112%. Moreover, the activity at 3 µM in experiment [1] (setting [5]) is 108%. Also, the activity at 3 µM in experiment [1] (setting [6]) was 122%. Also, the AC50 in experiment [2] was 422 nM. Besides, in the experiment with HepG2-A16-CD81EGFP cells, the “HepG2 1uM growth rep1” value came out at 91%, the “HepG2 1uM growth rep2” value was determined as 88%, the “HepG2 3uM growth rep1” value was found to be 86% and the “HepG2 3uM growth rep2” value turned out to be 93%.
As to `COc1cccc2sc(N3CCN(C(=O)c4ccc([N+](=O)[O-])o4)CC3)nc12` [MLS001234267-01], the activity at 1 µM in experiment [1] (setting [3]) turned out to be 111%. The activity at 1 µM in experiment [1] (setting [4]) turned out to be 94%. In addition, in experiment [1] (setting [5]), the activity at 3 µM was determined as 69%. Moreover, the activity at 3 µM in experiment [1] (setting [6]) was determined as 79%. Besides, the AC50 in experiment [2] was 4730 nM. In the experiment on HepG2-A16-CD81EGFP cells, the “HepG2 1uM growth rep1” value amounted to 103%, the “HepG2 1uM growth rep2” value is listed as 96%, the “HepG2 3uM growth rep1” value is on record as 94% and the “HepG2 3uM growth rep2” value is given as 93%.
For the compound `COc1ccc2nc(N3CCN(C(=O)c4ccc([N+](=O)[O-])o4)CC3)sc2c1` [MLS001234236-01], in experiment [1] (setting [3]), the activity at 1 µM turned out to be 100%. Moreover, the activity at 1 µM in experiment [1] (setting [4]) is 81%. Moreover, the activity at 3 µM in experiment [1] (setting [5]) worked out at 91%. For the same compound, the activity at 3 µM in experiment [1] (setting [6]) came out at 103%. Further, the AC50 in experiment [2] amounted to 4730 nM. In the experiment with HepG2-A16-CD81EGFP cells, the “HepG2 1uM growth rep1” value is 91%, the “HepG2 1uM growth rep2” value is given as 90%, the “HepG2 3uM growth rep1” value is listed as 89% and the “HepG2 3uM growth rep2” value stood at 89%.
Take `CN(C)Cc1c(O)ccc2oc(Cc3ccccc3)cc12` [MLS000039159-01]: the activity at 1 µM in experiment [1] (setting [3]) amounted to 98%. Also, the activity at 1 µM in experiment [1] (setting [4]) was determined as 102%. Also, in experiment [1] (setting [5]), the activity at 3 µM was determined as 63%. The activity at 3 µM in experiment [1] (setting [6]) turned out to be 108%. The AC50 in experiment [2] is 422 nM. In the experiment with HepG2-A16-CD81EGFP cells, the “HepG2 1uM growth rep1” value stood at 108%, the “HepG2 1uM growth rep2” value is given as 93%, the “HepG2 3uM growth rep1” value is 87% and the “HepG2 3uM growth rep2” value turned out to be 92%.
On to `CC1CCN(c2ccc(C(=O)NCc3ccco3)cc2[N+](=O)[O-])CC1` [MLS000389854-01], for which the activity at 1 µM in experiment [1] (setting [3]) was 63%. The activity at 1 µM in experiment [1] (setting [4]) was 57%. The activity at 3 µM in experiment [1] (setting [5]) was determined as 20%. Further, the activity at 3 µM in experiment [1] (setting [6]) came to 28%. The AC50 in experiment [2] came out at 6680 nM. Also, in the experiment with HepG2-A16-CD81EGFP cells, the “HepG2 1uM growth rep1” value is 91%, the “HepG2 1uM growth rep2” value is 90%, the “HepG2 3uM growth rep1” value was 88% and the “HepG2 3uM growth rep2” value was 94%.
Turning to `Cc1ccnc(NC(=O)c2cccc(S(=O)(=O)N3CCCc4ccccc43)c2)c1` [MLS001159724-01], the activity at 1 µM in experiment [1] (setting [3]) turned out to be 100%. Further, the activity at 1 µM in experiment [1] (setting [4]) is 97%. Also, the activity at 3 µM in experiment [1] (setting [5]) amounted to 38%. The activity at 3 µM in experiment [1] (setting [6]) came to 52%. For the same compound, in experiment [2], the AC50 came out at 2370 nM. Also, in the experiment on HepG2-A16-CD81EGFP cells, the “HepG2 1uM growth rep1” value was 101%, the “HepG2 1uM growth rep2” value stood at 95%, the “HepG2 3uM growth rep1” value is on record as 90% and the “HepG2 3uM growth rep2” value was 89%.
Take `CC(NCc1ccccc1O)C12CC3CC(CC(C3)C1)C2` (stereo not drawn) [MLS001173343-01]: the activity at 1 µM in experiment [1] (setting [3]) amounted to 106%. Besides, in experiment [1] (setting [4]), the activity at 1 µM worked out at 90%. Besides, the activity at 3 µM in experiment [1] (setting [5]) was determined as 70%. In experiment [1] (setting [6]), the activity at 3 µM was determined as 88%. For the same compound, the AC50 in experiment [2] was 94.4 nM. Also, in the experiment with HepG2-A16-CD81EGFP cells, the “HepG2 1uM growth rep1” value was 109%, the “HepG2 1uM growth rep2” value was determined as 103%, the “HepG2 3uM growth rep1” value is 93% and the “HepG2 3uM growth rep2” value is reported as 102%.
Regarding `O=C(Nc1ccc(C2=NCCN2)cc1)c1ccc(C(=O)Nc2ccc(C3=NCCN3)cc2)c(Cl)c1` [MLS000737368-01], in experiment [1] (setting [3]), the activity at 1 µM was 107%. In addition, the activity at 1 µM in experiment [1] (setting [4]) came to 94%. For the same compound, the activity at 3 µM in experiment [1] (setting [5]) stood at 72%. Also, the activity at 3 µM in experiment [1] (setting [6]) stood at 81%. The concentration at half-maximal activity (AC50) in experiment [2] came to 473 nM. For the same compound, in the experiment on HepG2-A16-CD81EGFP cells, the “HepG2 1uM growth rep1” value turned out to be 102%, the “HepG2 1uM growth rep2” value is recorded as 94%, the “HepG2 3uM growth rep1” value is on record as 85% and the “HepG2 3uM growth rep2” value is recorded as 95%.
Regarding `Cc1ccc(-c2c(C(=O)N/N=C/c3cccc(Cl)c3)nnn2-c2nonc2N)cc1` [MLS001139410-01], the activity at 1 µM in experiment [1] (setting [3]) was 143%. In experiment [1] (setting [4]), the activity at 1 µM amounted to 123%. Also, the activity at 3 µM in experiment [1] (setting [5]) was 105%. The activity at 3 µM in experiment [1] (setting [6]) stood at 91%. For the same compound, in experiment [2], the AC50 worked out at 237 nM. In the experiment with HepG2-A16-CD81EGFP cells, the “HepG2 1uM growth rep1” value amounted to 90%, the “HepG2 1uM growth rep2” value was 91%, the “HepG2 3uM growth rep1” value is 90% and the “HepG2 3uM growth rep2” value came out at 94%.
In the case of `CCOC(=O)c1sc2nc3c(SCCC#N)cc(C(=O)c4cc(F)ccc4O)cn3c(=O)c2c1C` [MLS000393119-01], the activity at 1 µM in experiment [1] (setting [3]) is 107%. Further, in experiment [1] (setting [4]), the activity at 1 µM worked out at 121%. For the same compound, the activity at 3 µM in experiment [1] (setting [5]) came out at 76%. Further, in experiment [1] (setting [6]), the activity at 3 µM was 92%. Moreover, the AC50 in experiment [2] was determined as 1680 nM. In the experiment with HepG2-A16-CD81EGFP cells, the “HepG2 1uM growth rep1” value is 91%, the “HepG2 1uM growth rep2” value amounted to 92%, the “HepG2 3uM growth rep1” value worked out at 89% and the “HepG2 3uM growth rep2” value is recorded as 93%.
Turning to `COc1cc(C)cc(CN2CCC(Cc3ccccc3)CC2)c1O` [MLS001178265-01], in experiment [1] (setting [3]), the activity at 1 µM was 83%. Besides, the activity at 1 µM in experiment [1] (setting [4]) worked out at 95%. The activity at 3 µM in experiment [1] (setting [5]) is 81%. Further, the activity at 3 µM in experiment [1] (setting [6]) is 123%. In addition, the AC50 in experiment [2] was 750 nM. In the experiment on HepG2-A16-CD81EGFP cells, the “HepG2 1uM growth rep1” value is on record as 101%, the “HepG2 1uM growth rep2” value is listed as 92%, the “HepG2 3uM growth rep1” value amounted to 87% and the “HepG2 3uM growth rep2” value amounted to 88%.
On to `COc1ccc(C2c3[nH]c4ccccc4c3C[C@H]3C(=O)N(C4CCN(Cc5ccccc5)CC4)CC(=O)N23)cc1OC` (stereo partly drawn) [MLS001215281-01], for which the activity at 1 µM in experiment [1] (setting [3]) is 95%. Further, the activity at 1 µM in experiment [1] (setting [4]) was found to be 94%. In experiment [1] (setting [5]), the activity at 3 µM came out at 66%. For the same compound, in experiment [1] (setting [6]), the activity at 3 µM is 79%. Also, the AC50 in experiment [2] was determined as 2990 nM. Besides, in the experiment with HepG2-A16-CD81EGFP cells, the “HepG2 1uM growth rep1” value is reported as 107%, the “HepG2 1uM growth rep2” value was determined as 95%, the “HepG2 3uM growth rep1” value is 91% and the “HepG2 3uM growth rep2” value is given as 90%.
Take `COc1cc2ccccc2cc1C(=O)N1CCCC(C(F)(F)F)C1` (stereo not drawn) [MLS002180647-01]: the activity at 1 µM in experiment [1] (setting [3]) stood at 90%. For the same compound, the activity at 1 µM in experiment [1] (setting [4]) is 108%. Also, in experiment [1] (setting [5]), the activity at 3 µM worked out at 85%. In addition, the activity at 3 µM in experiment [1] (setting [6]) came out at 115%. In addition, the AC50 in experiment [2] was 5310 nM. Further, in the experiment on HepG2-A16-CD81EGFP cells, the “HepG2 1uM growth rep1” value came out at 105%, the “HepG2 1uM growth rep2” value is listed as 90%, the “HepG2 3uM growth rep1” value amounted to 83% and the “HepG2 3uM growth rep2” value amounted to 89%.
